Assay results taken from US20030219482A1, “Multiparticulate compositions for once-a-day administration” (priority 2002, published 2003).
Structures can show the parent of a compound that is named as a salt.

Experiment: Drug release (dissolution) of the controlled release tablets, USP apparatus Type I
Format: physicochemical
Conditions: 900 ml phosphate buffer pH 7.5, USP Type I basket 100 rpm, Example tablet
Method: The tablets were characterized for drug release in 900 ml of phosphate buffer of pH 7.5. The USP apparatus Type I with basket speed at 100 rpm was used for the study. The samples of the media were periodically withdrawn and analyzed for drug content.

Compound	Cumulative percent drug released (1 hour) [%]	Cumulative percent drug released (2 hours) [%]	Cumulative percent drug released (3 hours) [%]	Cumulative percent drug released (4 hours) [%]	Cumulative percent drug released (5 hours) [%]	Cumulative percent drug released (6 hours) [%]	Cumulative percent drug released (8 hours) [%]	Cumulative percent drug released (10 hours) [%]	Cumulative percent drug released (12 hours) [%]	Cumulative percent drug released (15 hours) [%]	Cumulative percent drug released (18 hours) [%]	Cumulative percent drug released (21 hours) [%]	Cumulative percent drug released (24 hours) [%]
CN(C)C(=N)N=C(N)N [Metformin Hydrochloride, Metformin hydrochloride]	28.83	49.59	64.74	78.09	88.49	93.26	97.29	100.01	103.93	105.57	105.92	105.99	106.47
Cc1cnc(C(=O)NCCc2ccc(S(=O)(=O)NC(=O)NC3CCCCC3)cc2)cn1 [Glipizide]	6.5	16.6	27.1	33.9	41.5	47.3	55.4	67.9	75.2	85.8	93.0	99.4	102.5
